Measurements: patent publication US4316839A, “Imidazodiazepine derivatives” (Hoffman-La Roche Inc., priority 1979, dated 1982)

Assays:
Schistosoma mansoni [1] = experiment: schistosomicidal activity in infected mice; assay type: in vivo; details: Mouse
Method: (§1) Mice and golden hamsters are infected subcutaneously with 60 cercaria of Schistosoma mansoni. Ca 42 days after the infection, they are treated orally with a single dosage of the compound to be tested. 5 Animals are used per test preparation and dosage. 10 Untreated animals are used as controls. The animals are killed and dissected 2 weeks (hamster) or 3 weeks (mice) after the treatment. Worm pairs in mesenteric veins, portal vein and liver are dissected-out, counted and the condition of the worms (living or dead) is registered. A schistosomicidal activity of a test preparation manifests itself in the appearance of dead worms in the vessels of the liver. Dead worms are never found in untreated control animals. The test is evaluated by calculating the percentage of dead worm pairs in the vessels of the liver in infected, treated animals.
(§2) The following representative compounds of formula I were tested in tests described earlier for possible detrimental effects on the schistosomicidal activity of (+)-5-(o-chlorophenyl)-1,3-dihydro-3-methyl-7-nitro-2H-1,4-benzodiazepin-2-one (compound S).

Schistosoma mansoni [2] = experiment: schistosomicidal activity in infected golden hamsters; assay type: in vivo; details: Hamster; Compound S 75 mg/kg p.o. alone
Method: as §1, §2

Schistosoma mansoni [3] = experiment: in vitro schistosomicidal activity (motility of isolated worm pairs); assay type: cell-based; details: 25 μg/ml alone
Method: In order to test the in vitro activity of preparations, worm pairs of Schistosoma mansoni are isolated from mice and incubated at 37° C. in a nutrient medium. Test preparations are added in the form of a solution or as a suspension. The motility of the worms is observed under the microscope and registered during the test duration of 120 hours. A schistosomicidal activity of a test preparation manifests itself in the more or less rapid loss of motility of the worms. Control worms in the nutrient medium without the addition of test preparation maintain their normal motility during the entire test duration of 120 hours.
as §2

[4] = target: specific benzodiazepine receptors in the cerebral cortex; experiment: inhibition of the binding of tritiated diazepam at the specific benzodiazepine receptors in the cerebral cortex; details: compounds of formula I with A = group (a)
Method: The affinity of compounds of formula I to the central benzodiazepine receptors was determined according to the method described in Life Science 20, 2101-2110 (1977) and Science 198, 849-851 (1977). According to this method, the inhibition of the binding of tritiated diazepam at the specific benzodiazepine receptors in the cerebral cortex by test substances is ascertained. The IC50 ("50% inhibiting concentration") is that concentration of the test substance which brings about a 50 percent inhibition of the specific binding of the tritiated diazepam at the specific benzodiazepine receptors in the cerebral cortex.
(§3) In the following Table there are compiled the results which have been obtained with representative compounds of formula I. The ED50 value is given for each compound listed in the Table. The ED50 is the amount of the test compound in mg/kg (p.o.) which counteracts in 50% of the animals the diazepam effect in the foregoing test. Moreover, the Table contains the IC50 value (defined hereinbefore) for all test compounds listed therein as well as details concerning the acute toxicity of certain compounds (LD50 in mg/kg following single oral administration to mice).

[5] = test system: diazepam effect in the pentetrazole test; experiment: pentetrazole test: antagonism of the diazepam effect in mice; assay type: in vivo; details: Mus musculus, po; mice; diazepam 5 mg/kg i.p. 1 hour and test compound 15 min before pentetrazole 120 mg/kg i.p.
Method: This property was used as a basis for the test described hereinafter which permits the determination of compounds which are capable of antagonising the central properties of 1,4-benzodiazepines which have tranquillising activity.
The antagonistic activity of the compounds tested, i.e. their ability to counteract the activity of diazepam in the pentetrazole test, is determined by counting the mice which suffer spasmodic seizures in this test.
as §3

[6] = acute toxicity following single oral administration to mice; details: mouse, in vivo
Description: as §3

[7] = test system: central activities of flunitrazepam; experiment: EEG of the dorsal hippocampus (theta rhythm) in conscious, curarised rats; antagonism of flunitrazepam; assay type: in vivo
Method: Four tests were carried out on conscious, curarised, artifically respirated rats. The bipolar-derived EEG of the dorsal hippocampus served as the measured variable. 10 minutes after the beginning of the derivation flunitrazepam was administered intravenously in a dosage of 0.1 mg/kg. The test substance was likewise administered intravenously in a dosage of 1 mg/kg to one animal 10 minutes and to three animals 30 minutes after the administration of flunitrazepam. The EEGs obtained were analysed continuously in the frequency range according to the rules of the Fourier transformation, whereby each of the computed spectra related to 1 minute.
The normal EEG from the hippocampus of conscious, curarised rats is characterised by a stable theta rhythm of 3.75-4.25 Hertz which remains unchanged at least 3 hours after the beginning of the artificial respiration. Flunitrazepam, in the given dosage, completely suppresses this theta rhythm for about 15 minutes. Thereafter, there appears a rhythm which is slowed down to 2.75-3.25 Hertz, which increases continuously and again attains the normal frequency of 4 Hertz 1 to 1.5 hours after the injection.

CC1N=C(c2ccccc2Cl)c2cc([N+](=O)[O-])ccc2NC1=O (single isomer, unassigned; (+)) [Compound S, (+)-5-(o-chlorophenyl)-1,3-dihydro-3-methyl-7-nitro-2H-1,4-benzodiazepin-2-one]
Schistosomicidal activity in % (Schistosoma mansoni [1]; Compound S 75 mg/kg p.o. alone): 99% | Schistosomicidal activity in % (Schistosoma mansoni [2]): 100% | Activity (in vitro) (Schistosoma mansoni [3]): a (worm pairs motionless within 15)

CCOC(=O)c1ncn2c1CN(C)C(=O)c1cc(F)ccc1-2 [Example 1, ethyl 8-fluoro-5,6-dihydro-5-methyl-6-oxo-4H-imidazo[1,5-a][1,4]benzodiazepine-3-carboxylate]
IC50 [4]: 2.5 µM | ED50 [5]: 5.8 mg/kg | LD50 [6]: > 5000 mg/kg | Schistosomicidal activity in % (Schistosoma mansoni [1]; 750 mg/kg p.o. alone): 0%

CCOC(=O)c1ncn2c1[C@@H]1CCCN1C(=O)c1ccccc1-2 [Example 30, ethyl (S)-11,12,13,13a-tetrahydro-9-oxo-9H-imidazo[1,5-a]pyrrolo[2,1-c][1,4]benzodiazepine-1-carboxylate]
IC50 [4]: 6.4 µM | ED50 [5]: 9.3 mg/kg | LD50 [6]: 1250 to 2500 mg/kg | theta rhythm frequency after test substance ([7]; 1 mg/kg i.v., 10 or 30 min after flunitrazepam): 4 Hertz | normalisation of theta rhythm ([7]; 1 mg/kg i.v., 10 or 30 min after flunitrazepam 0.1 mg/kg i.v.): immediate, long-lasting normalisation of the described theta rhythm at 4 Hertz | effect on theta rhythm ([7]; 1 mg/kg i.v., 10 min after flunitrazepam): immediately brought about the rhythm suppressed by flunitrazepam, whereby this showed the normal frequency from the outset | effect on theta rhythm ([7]; 1 mg/kg i.v., 30 min after flunitrazepam): accelerated the already, but slowly, re-appearing rhythm immediately to its normal frequency of 4 Hertz | antagonism of the central activities of flunitrazepam ([7]; rats, overall finding): antagonises the central activities of the known 1,4-benzodiazepine derivative flunitrazepam

CN1C(=O)CN=C(c2ccccc2F)c2cc([N+](=O)[O-])ccc21 [flunitrazepam, reference compound]
complete suppression of theta rhythm, duration ([7]; flunitrazepam 0.1 mg/kg i.v.): about 15 minutes | frequency of slowed-down rhythm ([7]; flunitrazepam 0.1 mg/kg i.v., after suppression phase): 2.75-3.25 Hertz | time to again attain normal frequency of 4 Hertz ([7]; flunitrazepam 0.1 mg/kg i.v., after the injection): 1 to 1.5 h
